We go through 35 compounds from US11479556B1, “Bifunctional compounds for degrading BTK via ubiquitin proteosome pathway” (NURIX THERAPEUTICS, INC., priority 2018, dated 2022).

The target of the assay is T1, BTK (Homo sapiens, UniProt Q06187).
T1 construct: endogenous in cells; host or cells: TMD8 cells
T1 sequence (Q06187 whole entry): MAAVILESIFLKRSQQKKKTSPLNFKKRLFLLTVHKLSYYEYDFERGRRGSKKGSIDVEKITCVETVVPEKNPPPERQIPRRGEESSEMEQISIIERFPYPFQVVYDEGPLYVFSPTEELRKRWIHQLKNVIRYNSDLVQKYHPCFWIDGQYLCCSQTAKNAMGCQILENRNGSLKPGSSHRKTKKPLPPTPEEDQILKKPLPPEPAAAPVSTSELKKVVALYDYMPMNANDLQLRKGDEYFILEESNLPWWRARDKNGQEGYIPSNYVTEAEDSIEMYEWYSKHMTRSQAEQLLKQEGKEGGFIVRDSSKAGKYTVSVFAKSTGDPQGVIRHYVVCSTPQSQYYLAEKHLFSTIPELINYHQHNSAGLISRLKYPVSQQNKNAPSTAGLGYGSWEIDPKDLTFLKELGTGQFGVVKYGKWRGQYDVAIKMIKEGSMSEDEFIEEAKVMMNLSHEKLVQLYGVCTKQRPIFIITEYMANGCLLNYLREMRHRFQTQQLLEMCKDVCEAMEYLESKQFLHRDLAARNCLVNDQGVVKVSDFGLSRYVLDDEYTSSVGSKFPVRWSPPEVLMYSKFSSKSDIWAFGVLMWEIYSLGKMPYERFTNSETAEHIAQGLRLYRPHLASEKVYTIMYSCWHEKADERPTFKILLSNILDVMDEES
Briefly: Cellular BTK HTRF assay (BTK degradation) in TMD8 cells. The class given is cell-based. Conditions: four hours incubation, Total-BTK HTRF relative to DMSO-treated cells. In a few lines:
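TMD8 cells were treated with compounds (final DMSO <0.200) for four hours at 37° C, 5% CO2, then lysed for 30 minutes. Total BTK was measured by two-antibody HTRF, taking the 665/620 nm ratio with background subtracted and expressed relative to DMSO-treated cells. DC50 came from four-parameter nonlinear regression.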
In the case of `CN1CCN([C@@H]2CCCN(c3cnc(C(N)=O)c(Nc4ccc(C5CCN(CC6CN(c7ccc8c(=O)n(C9CCC(=O)NC9=O)ccc8c7)C6)CC5)cc4)n3)C2)C1=O` (some centres unmarked) [Compound 138], the DC50 is less than 5 nM.

On to `NC(=O)c1ncc(N2CCC[C@H](N3CCCC3=O)C2)nc1Nc1ccc(C2CN(CC3CCN(c4ccc5c(=O)n(C6CCC(=O)NC6=O)ccc5c4)CC3)C2)cc1` (some centres unmarked) [Compound 139], for which the DC50 was less than 5 nM. Compound `NC(=O)c1ncc(N2CCC[C@H](N3CCCC3=O)C2)nc1Nc1ccc(C2CN(C[C@@H]3CCN(c4ccc5c(c4)C(=O)N(C4CCC(=O)NC4=O)C5=O)C3)C2)cc1` (some centres unmarked) [Compound 140] showed a DC50 of less than 5 nM. With `Cn1c(N2CCC(CN3CC(c4ccc(Nc5nc(N6CCC[C@H](N7CCCC7=O)C6)cnc5C(N)=O)cc4)C3)CC2)nn(C2CCC(=O)NC2=O)c1=O` (some centres unmarked) [Compound 141], the DC50 is less than 5 nM. The compound `CC1CCN([C@H]2CCCN(c3cnc(C(N)=O)c(Nc4ccc(C5CCN(C[C@@H]6CCN(c7ccc(-c8nn(C9CCC(=O)NC9=O)c(=O)n8C)cc7)C6)CC5)cc4)n3)C2)C1=O` (some centres unmarked) [Compound 142] showed a DC50 of less than 5 nM. As for `Cn1c(-c2ccc(N3CCC(CN4CCC(c5ccc(Nc6nc(N7CCC[C@H](N8CCCC8=O)C7)cnc6C(N)=O)cc5)CC4)CC3)cc2)nn(C2CCC(=O)NC2=O)c1=O` (some centres unmarked) [Compound 143], the figure is less than 5 nM.

In the case of `NC(=O)c1ncc(N2CCC[C@H](N3CCCC3=O)C2)nc1Nc1ccc(C2CCN(CC3CCN(c4ccc5c(=O)n(C6CCC(=O)NC6=O)ccc5c4)CC3)CC2)cc1` (some centres unmarked) [Compound 144], the half-maximal degradation concentration (DC50) is less than 5 nM.

In the case of `Cn1cc(Nc2nc(N3CCC[C@@H](N4CCC5(CN(CC6CCN(c7ccc8c(=O)n(C9CCC(=O)NC9=O)ccc8c7)CC6)C5)C4=O)C3)cnc2C(N)=O)cn1` (some centres unmarked) [Compound 145], the DC50 was less than 5 nM. Compound `NC(=O)c1ncc(N2CCCC(N3CCCC3=O)C2)nc1Nc1ccc(C2CN(C[C@@H]3CCN(c4ccc5c(c4)C(=O)N(C4CCC(=O)NC4=O)C5=O)C3)C2)cc1` (some centres unmarked) [Compound 146] displayed a DC50 of less than 5 nM. For `Cn1cc(Nc2nc(N3CCC[C@@H](N4CC5(CN(CC6CCN(c7ccc8c(=O)n(C9CCC(=O)NC9=O)ccc8c7)CC6)C5)OC4=O)C3)cnc2C(N)=O)cn1` (some centres unmarked) [Compound 147] the value was less than 5 nM. For `NC(=O)c1ncc(-c2nccs2)nc1Nc1ccc(C2CCN(C[C@@H]3CCN(c4ccc5c(c4)C(=O)N(C4CCC(=O)NC4=O)C5=O)C3)CC2)cc1` (some centres unmarked) [Compound 148] the value was less than 5 nM; for `NC(=O)c1ncc(N2CCCCC2)nc1Nc1ccc(C2CCN(C[C@@H]3CCN(c4ccc5c(c4)C(=O)N(C4CCC(=O)NC4=O)C5=O)C3)CC2)cc1` (some centres unmarked) [Compound 149], less than 5 nM; for `NC(=O)c1ncc(-c2nccs2)nc1Nc1ccc(N2CCC3(CC2)CCN(c2ccc4c(c2)C(=O)N(C2CCC(=O)NC2=O)C4=O)CC3)cc1` (centres unmarked) [Compound 151], more than 15 nM.

In the case of `CN1CCN(C2CCCN(c3cnc(C(N)=O)c(Nc4ccc(C5CCN(CC6CCN(c7ccc8c(c7)CN(C7CCC(=O)NC7=O)C8=O)C6)CC5)cc4)n3)C2)C1=O` (centres unmarked) [Compound 152], the DC50 was less than 5 nM. As for `NC(=O)c1ncc(N2CCC[C@@H](N3CCOC3=O)C2)nc1Nc1ccc(C2CCN(CC3CCN(c4ccc5c(=O)n(C6CCC(=O)NC6=O)ccc5c4)CC3)CC2)cc1` (some centres unmarked) [Compound 153], the figure is less than 5 nM; as for `CN1CCN([C@@H]2CCCN(c3cnc(C(N)=O)c(Nc4ccc(C5CCN(C[C@H]6CC[C@H](Nc7cccc8c7C(=O)N(C7CCC(=O)NC7=O)C8=O)CC6)CC5)cc4)n3)C2)C1=O` (some centres unmarked) [Compound 154], less than 5 nM. In turn, `CN1CCN([C@@H]2CCCN(c3cnc(C(N)=O)c(Nc4ccc(C5CCN(C(=O)COc6cccc7c6C(=O)N(C6CCC(=O)NC6=O)C7=O)CC5)cc4)n3)C2)C1=O` (some centres unmarked) [Compound 158] came in with a DC50 of 5 to 15 nM.

The compound `NC(=O)c1ncc(N2CCC(C(=O)O)CC2)nc1Nc1ccc(C2CCN(C[C@H]3CCN(c4ccc5c(c4)C(=O)N(C4CCC(=O)NC4=O)C5=O)C3)CC2)cc1` (some centres unmarked) [Compound 159] gave a DC50 of 5 to 15 nM. Compound `NC(=O)c1ncc(N2CCC(CO)CC2)nc1Nc1ccc(C2CCN(C[C@@H]3CCN(c4ccc5c(c4)C(=O)N(C4CCC(=O)NC4=O)C5=O)C3)CC2)cc1` (some centres unmarked) [Compound 160] showed a DC50 of less than 5 nM.

Consider `NC(=O)c1ncc(N2CCOCC2)nc1Nc1ccc(C2CCN(C[C@H]3CCN(c4ccc5c(c4)C(=O)N(C4CCC(=O)NC4=O)C5=O)C3)CC2)cc1` (some centres unmarked) [Compound 161], for which the DC50 was 5 to 15 nM.

Consider `NC(=O)c1ncc(N2CCC2)nc1Nc1ccc(C2CCN(C[C@H]3CCN(c4ccc5c(c4)C(=O)N(C4CCC(=O)NC4=O)C5=O)C3)CC2)cc1` (some centres unmarked) [Compound 162], for which the DC50 was less than 5 nM. In turn, `NC(=O)c1ncc(N2CCCCC2)nc1Nc1ccc(C2CCN(CC3CCN(c4ccc5ccn(C6CCC(=O)NC6=O)c(=O)c5c4)CC3)CC2)cc1` (centres unmarked) [Compound 163] registered a DC50 of less than 5 nM. Take `NC(=O)c1ncc(N2CCCCC2)nc1Nc1ccc(C2CCN(CC3CCN(c4ccc(OC5CCC(=O)NC5=O)cn4)CC3)CC2)cc1` (centres unmarked) [Compound 164]: the DC50 was in the range of 5 to 15 nM. `CN1CCN([C@@H]2CCCN(c3cnc(C(N)=O)c(Nc4ccc(C5CCN(CC6CCN(c7ccc(OC8CCC(=O)NC8=O)cn7)CC6)CC5)cc4)n3)C2)C1=O` (some centres unmarked) [Compound 165] returned a DC50 of 5 to 15 nM. Consider `NC(=O)c1ncc(N2CCCCC2)nc1Nc1ccc(C2CCN(CC3CCN(c4ccc(NC5CCC(=O)NC5=O)cn4)CC3)CC2)cc1` (centres unmarked) [Compound 167], for which the DC50 is more than 15 nM. Consider `NC(=O)c1ncc(N2CCC[C@@H](N3CCCC3=O)C2)nc1Nc1ccc(N2CC(C3CCN(c4ccc5c(c4)C(=O)N(C4CCC(=O)NC4=O)C5=O)CC3)C2)nc1` (some centres unmarked) [Compound 168], for which the half-maximal degradation concentration (DC50) is less than 5 nM. For `NC(=O)c1ncc(N2CCC[C@@H](N3CCCC3=O)C2)nc1Nc1ccc(N2CC(C3CCN(c4ccc5c(c4)C(=O)N(C4CCC(=O)NC4=O)C5=O)CC3)C2)cc1` (some centres unmarked) [Compound 169] the value was less than 5 nM; for `NC(=O)c1ncc(N2CCC[C@@H](CO)C2)nc1Nc1ccc(C2CCN(CC3CCN(c4ccc(NC5CCC(=O)NC5=O)cn4)CC3)CC2)cc1` (some centres unmarked) [Compound 170], less than 5 nM. The compound `NC(=O)c1ncc(N2CCC[C@@H](CO)C2)nc1Nc1ccc(C2CCN(CC3CCN(c4ccc(OC5CCC(=O)NC5=O)cn4)CC3)CC2)cc1` (some centres unmarked) [Compound 171] registered a DC50 of less than 5 nM.

`NC(=O)c1ncc(N2CCC[C@@H](CO)C2)nc1Nc1ccc(C2CCN(CC3CCN(c4ccc5c(=O)n(C6CCC(=O)NC6=O)ccc5c4)CC3)CC2)cc1` (some centres unmarked) [Compound 172] gave a DC50 of less than 5 nM. The compound `NC(=O)c1ncc(N2CCC[C@@H](CO)C2)nc1Nc1ccc(C2CCN(CC3CCN(c4ccc(C(=O)NC5CCC(=O)NC5=O)nc4)CC3)CC2)cc1` (some centres unmarked) [Compound 173] gave a DC50 of less than 5 nM. In turn, `NC(=O)c1ncc(N2CCC[C@@H](CO)C2)nc1Nc1ccc(C2CCN(C[C@H]3CCN(c4ccc5c(c4)C(=O)N(C4CCC(=O)NC4=O)C5=O)C3)CC2)cc1` (some centres unmarked) [Compound 174] came in with a DC50 of less than 5 nM. For `NC(=O)c1ncc(N2CCC(F)(F)C(CO)C2)nc1Nc1ccc(C2CCN(C[C@H]3CCN(c4ccc5c(c4)C(=O)N(C4CCC(=O)NC4=O)C5=O)C3)CC2)cc1` (some centres unmarked) [Compound 175] the value was less than 5 nM; for `NC(=O)c1ncc(N2CCC3(COC3)C2)nc1Nc1ccc(C2CCN(C[C@H]3CCN(c4ccc5c(c4)C(=O)N(C4CCC(=O)NC4=O)C5=O)C3)CC2)cc1` (some centres unmarked) [Compound 176], less than 5 nM; for `NC(=O)c1ncc(N2CCCC3(COC3)C2)nc1Nc1ccc(C2CCN(CC3CCN(c4ccc5c(=O)n(C6CCC(=O)NC6=O)ccc5c4)CC3)CC2)cc1` (centres unmarked) [Compound 177], less than 5 nM.
